The values that follow come from patent US10898458B2, “Self-micellizing fatty acids and fatty acid ester compositions and their use in the treatment of disease states” (Micelle BioPharma, Inc., priority 2013, dated 2021).

Data set [1] can be described thus: Longitudinal plasma fatty acid levels, porcine SBS model. It is filed as in vivo, piglets. The text has this:
(§1) The control group received a standard DHA ethyl ester preparation of substantially pure DHA ethyl ester (>90% DHA ethyl ester).
Blood samples for systemic fatty acid profiles were obtained on the day of surgery and then twice daily until sacrifice on fourth postoperative day. Plasma fatty acids were isolated and measured.
(§2) The primary outcome measure was a change in plasma DHA level in the SBS-treated group versus control group. Given the small number of piglets per group, appropriate small group statistical methods were used to evaluate differences in outcome variables. Variable summary statistics are expressed as median±interquartile range (IQR). The Wilcoxon Rank-Sum test, which is appropriate to compare two non-normal distributions as is common in small sample size, was used to compare outcome measures between groups; while the Wilcoxon signed-rank test, which is appropriate for repeated measurements within the same animal, was used to compare paired, before and after surgery outcome measures within groups. Differences in growth measurements and fatty acid levels over time between groups were evaluated using generalized linear mixed models (GLMM) to account for repeated measures and non-Gaussian, non-normal data.

The test system of data set [2] is porcine model of SBS. The data set is described as follows: Small bowel morphometry (villus height, crypt depth), porcine SBS model. It is filed as in vivo, piglets. To be noted: within group. How it is done: as §1
(§3) Samples of intestinal tissue resected at the time of surgery and remnants at sacrifice were collected from proximal jejunum (proximal to anastomosis) and distal ileum (distal to anastomosis) and morphological measurements of the crypts and villi were measured. Only intact villi and crypts were measured. All measurements were made by the same, single, blinded observer.
as §2

Data set [3] deals with porcine model of SBS. Briefly: Growth (weight) in neonatal porcine model of SBS. To be noted: median ± IQR; for Change in weight: final minus starting weight, 4 days at 1 g/kg*day. It is filed as in vivo, piglets. How it is done: A study was conducted to evaluate, in an established porcine model of SBS, the systemic absorption and intestinal adaptation capacity of an ethyl ester form of DHA in combination with a surface active agent composition effective to spontaneously form micelles with said fatty acids upon contact with an aqueous media. In certain embodiments, the self-micellizing compositions may further contain at least one additional omega-3 fatty acid (either in the triglyceride, ester, or free fatty acid form), for example EPA or other known omega-3 fatty acids as disclosed herein. In certain embodiments, the self-micellizing compositions may further contain an anti-oxidant, such as tocopherol. In certain embodiments, the self-micellizing compositions may further contain an omega-6 fatty acid (either in the triglyceride, ester, or free fatty acid form), for example arachidonic acid (ARA), linoleic acid (LA), gamma-linolenic acid (GLA) or the omega-6 isomer of DPA, also known as osbond acid. This composition allows for micelle formation independent of the presence of bile salts as compared to a standard […] of DHA without a surface active agent (Control).
(§4) Newborn, crossbred (Hampshire×Landrace×Duroc×Yorkshire) piglets (n=10), were weighed, placed in cages in a heated room (˜30° C.), and were fed with a commonly available sow milk replacement formula. After an overnight fast, piglets underwent surgery for the placement of jugular and intragastric catheters for postoperative parenteral and enteral nutrition, respectively, and small bowel resection surgery. Following a 4-cm midline incision an 80% mid-jejunoileal resection was performed. The total amount of bowel resection was approximated using the following equation: total intestinal length=280 cm×body weight^0.60. A 20% remnant (˜60 cm total per kg BW) remained and was represented equally between proximal jejunum and ileum, representing ˜30 cm each remnant segment per kg bodyweight. ˜45 cm of jejunum distal to the ligament of Treitz and ˜45 cm of ileum proximal to the ileocecal junction were measured using sterile silk ribbon placed along the antimesentric border of the gently stretched small intestine. Intestine not included in the measurement was removed via cauterization. Bowel continuity was restored using an end-to-end jejunoileal anastomosis.
Continuous enteral feeding with a commonly available sow milk replacer formula, also lacking DHA, was slowly introduced 24 h after intestinal resection at 3 mL/kg*h via the intragastric catheter. The volume of enteral feedings was then advanced every 24 h by 1 ml/kg*h until a final enteral volume of 5 mL/kg*h was achieved on postoperative day 3 which represents approximately 50% of full enteral feeding volume and nutrient intake.
as §1
Piglets were weighed every other day. In addition to calculating a change in weight by subtracting the starting weight at the time of randomization from the final weight, percent weight change and growth velocity (g/kg*d) were also calculated. Percent weight change was calculated by: [((final weight-starting weight)/starting weight)×100]. Growth velocity was calculated by: [(weight change/starting weight)/4 days of treatment].
The primary outcome measure was a change in plasma DHA level in the SBS-treated group versus control group. […] Variable summary statistics are expressed as median±interquartile range (IQR). […]

In data set [4] the test system is porcine model of SBS. Briefly: Small intestine resection and final organ weights, porcine SBS model. It is filed as in vivo, piglets. To be noted: at sacrifice after 4 days; median ± IQR. How it is done: as §4, §1, §3, §2
A further data set deals with COX-1 (Homo sapiens, UniProt P23219). To be noted: enzyme involved in synthesis of TXA2; cited from earlier work.
For the next data set, the system named is patients with PSC. To be noted: 12-month open-label pilot study, n=23; cited from earlier work.
The conditions of data set [5]: in humans; cited from earlier work.
The mark [6] stands for this setting: Time 0, at the time of surgery (baseline).
The mark [7] stands for this setting: within 12 hours, after the first enteral dose of DHA.
Where [8] appears, read: end of experiment vs time of surgery.

Chain of COX-1 (P23219 24-599): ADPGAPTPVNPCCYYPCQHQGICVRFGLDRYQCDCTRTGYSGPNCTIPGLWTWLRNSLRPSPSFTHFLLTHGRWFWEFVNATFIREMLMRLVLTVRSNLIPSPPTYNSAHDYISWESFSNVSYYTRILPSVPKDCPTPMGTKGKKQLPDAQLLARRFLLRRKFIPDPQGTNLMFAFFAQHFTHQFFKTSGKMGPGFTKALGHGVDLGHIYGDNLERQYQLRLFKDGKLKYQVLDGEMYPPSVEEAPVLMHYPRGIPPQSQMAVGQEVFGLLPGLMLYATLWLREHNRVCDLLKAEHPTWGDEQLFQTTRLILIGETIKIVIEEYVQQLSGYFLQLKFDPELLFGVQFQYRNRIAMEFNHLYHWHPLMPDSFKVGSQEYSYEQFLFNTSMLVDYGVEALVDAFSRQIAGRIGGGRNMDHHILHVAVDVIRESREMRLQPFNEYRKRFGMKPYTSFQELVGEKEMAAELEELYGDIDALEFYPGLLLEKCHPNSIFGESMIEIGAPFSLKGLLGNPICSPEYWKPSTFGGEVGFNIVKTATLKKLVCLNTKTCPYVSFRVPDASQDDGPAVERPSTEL

As to `CC/C=C\C/C=C\C/C=C\C/C=C\C/C=C\C/C=C\CCC(=O)OCC` [Control, DHA ethyl ester], in data set [1] (setting [6]), the “Initial plasma ARA level” value was 11.8±0.5 mol %, the “Initial plasma DHA level” value stood at 2.3±0.4 mol %, the “Initial plasma EPA level” value is 0.3±0.1 mol % and the “Initial plasma LA level” value is 16.6±1.8 mol %. The “Plasma ARA level” value in data set [1] (third postoperative day) came out at 8.7±0.8 mol %. Also, in data set [1] (setting [7]), the “Plasma DHA level” value came to 2.5 mol % and the “Plasma EPA level” value is 0.2±0.005 mol %. In addition, in the data set on porcine model of SBS [2] (setting [8]), the “Villus height of distal ileum, Final vs Day 0” value is “reduced, but not significantly different” and the “Villus height of proximal jejunum, Final vs Day 0” value is “not significantly different”. In addition, the “Crypt depth of distal ileum, final vs baseline” value in the data set on porcine model of SBS [2] is “increased from baseline”. Also, the “Crypt depth of proximal jejunum, final vs baseline” value in the data set with porcine model of SBS [2] (p<0.05) is “increased”. Also, in the data set on porcine model of SBS [3] (4 days of treatment), the Growth velocity is 13.5 ± 30.1 g/kg/day and the Weight change is listed as 5.4 ± 12.1%. In addition, the Weight at finish with porcine model of SBS [3] (after 4 days at 1 g/kg*day via intragastric catheter) was 2594 ± 170 g. Besides, the Change in weight in the data set with porcine model of SBS [3] stood at 132 ± 278 g. Also, in the data set on porcine model of SBS [3] (listed as control), the Change in weight was 132 ± 278 g. In addition, in the data set with porcine model of SBS [4], the “Brain (final weight)” value worked out at 14.0 ± 1.6 g/kg, the “Ileum (final length)” value was determined as 17.5 ± 4.7 cm/kg, the “Ileum (final weight)” value is 5.3 ± 1.2 g/kg and the “Jejunum (final length)” value was found to be 21.2 ± 6.7 cm/kg. Further, in the data set with porcine model of SBS [4], the “Jejunum (final weight)” value came out at 5.2 ± 1.4 g/kg and the “Liver (final weight)” value is listed as 36.3 ± 2.5 g/kg.
In the case of `CC/C=C\C/C=C\C/C=C\C/C=C\C/C=C\CCCCCC(=O)O` [Omega-3 DPA, all-cis-7,10,13,16,19-docosapentaenoic acid], the COX-1 activity entry on COX-1 is “potent inhibitor”.
With `CC/C=C\C/C=C\C/C=C\C/C=C\C/C=C\C/C=C\CCC(=O)O` [DHA, (4Z,7Z,10Z,13Z,16Z,19Z)-docosa-4,7,10,13,16,19-hexaenoic acid], in the data set with patients with PSC, the Alkaline phosphatase entry is on record as “significant decline” and the “Serum DHA levels” value is listed as “increase”.
For the compound `CC/C=C\C/C=C\C/C=C\CCCCCCCC(=O)O` [ALA, alpha-linolenic acid], in data set [5], the “Conversion to DHA” value was 2-5% and the “Conversion to EPA” value is reported as 5-10%.
